MIC and pKa data for five compounds are collected here from patent publication US4319028A, “7-(2-(Substituted benzoyl)amino)acetamido)cephalosporins” (Eli Lilly and Company, priority 1976, dated 1982).

Values after ≈ are worked out from the molar mass of the structure shown. Read-outs that look alike come from different tables or passages of the source.

The test system of one data set is Shigella sp. Nature of the data set: Antibiotic activity (MIC), Gradient Plate in vitro method, Shigella sp. Format: cell-based. To be noted: read-out: Minimum Inhibitory Concentration. From the text: (§1) The antibiotic activity of the cephalosporin compounds of the present invention is illustrated by the data presented in Table I for representative compounds. The values in the table are the minimum inhibitory concentrations (MIC) for the test compounds against the indicated microorganisms. The MIC values were obtained in the Gradient Plate in vitro method for determining antibiotic activity.

A further data set deals with Escherichia coli. Description: Antibiotic activity (MIC), Gradient Plate in vitro method, Escherichia coli. The data set is classed as cell-based. As to conditions: read-out: Minimum Inhibitory Concentration. From the text:
(§2) The values in the table are the minimum inhibitory concentrations (MIC) for the test compounds against the indicated microorganisms. The MIC values were obtained in the Gradient Plate in vitro method for determining antibiotic activity.

For the next data set, the system named is Klebsiella pneumoniae. Nature of the data set: Antibiotic activity (MIC), Gradient Plate in vitro method, Klebsiella pneumoniae. Format: cell-based. To be noted: read-out: Minimum Inhibitory Concentration.
Text: as §2

The next data set deals with Aerobacter Aerogenes. Description: Antibiotic activity (MIC), Gradient Plate in vitro method, Aerobacter Aerogenes. Format: cell-based. To be noted: Klebsiella aerogenes, read-out: Minimum Inhibitory Concentration.
Text: as §2

Another data set concerns Salmonella heidelberg. Nature of the data set: Antibiotic activity (MIC), Gradient Plate in vitro method, Salmonella heidelberg. Format: cell-based. To be noted: Salmonella enterica, read-out: Minimum Inhibitory Concentration.
Text: as §2

For another data set, the system named is Pseudomonas Aeruginosa. Nature of the data set: Antibiotic activity (MIC), Gradient Plate in vitro method, Pseudomonas Aeruginosa. To be noted: read-out: Minimum Inhibitory Concentration. Format: cell-based.
Text: as §2

The subject of another data set is Serratia marcescens. Nature of the data set: Antibiotic activity (MIC), Gradient Plate in vitro method, Serratia marcescens. Format: cell-based. To be noted: read-out: Minimum Inhibitory Concentration.
Text: as §1

For data set [1], the system named is V41 (penicillin resistant Staphylococcus). Description: Antibiotic activity (MIC), Gradient Plate in vitro method, V41. The data set is classed as cell-based. As to conditions: Gradient Plate in vitro; V41, penicillin resistant Staphylococcus; read-out: Minimum Inhibitory Concentration.
Text: as §1
(§3) ^1 Test organisms V41, V32, and V84 are penicillin resistant

Data set [2] concerns V32 (penicillin resistant Staphylococcus). Nature of the data set: Antibiotic activity (MIC), Gradient Plate in vitro method, V32. Format: cell-based. To be noted: read-out: Minimum Inhibitory Concentration.
Text: as §1, §3

In data set [3] the test system is X466 (methicillin resistant Staphylococcus). Description: Antibiotic activity (MIC), Gradient Plate in vitro method, X466. The data set is classed as cell-based. To be noted: read-out: Minimum Inhibitory Concentration. The source says: The antibiotic activity of the cephalosporin compounds of the present invention is illustrated by the data presented in Table I for representative compounds. The values in the table are the minimum inhibitory concentrations (MIC) for the test compounds against the indicated microorganisms. The MIC values were obtained in the Gradient Plate in vitro method for determining antibiotic activity. […]

Data set [4] has as its system V84 (penicillin resistant Staphylococcus). Nature of the data set: Antibiotic activity (MIC), Gradient Plate in vitro method, V84. Format: cell-based. To be noted: read-out: Minimum Inhibitory Concentration.
Text: as §1, §3

The nature of the next data set: Titration (pKa). Format: physicochemical. As to conditions: 66% dmf-34% h2o, titration (66% DMF-34% H2O).
Setting [5] is: Gradient Plate in vitro, V32, penicillin resistant Staphylococcus.
Where [6] appears, read: Gradient Plate in vitro, V84, penicillin resistant Staphylococcus.
Where [7] appears, read: first pKa, read-out: pKa (first value).

The pKa is the negative logarithm of the acid dissociation constant. Take `Cc1nnc(SCC2=C(C(=O)O)N3C(=O)C(NC(=O)[C@H](NC(=O)c4cc(O)c(O)c(O)c4)c4ccc(O)cc4)C3SC2)s1` (stereo partly drawn) [Example 6, 7-[D-[2-(4-Hydroxyphenyl)-2-[(3,4,5-trihydroxybenzoyl)-amino]acetyl]amino]-3-[[(5-methyl-1,3,4-thiadiazol-2-yl)thio]methyl]-3-cephem-4-carboxylic acid]: the MIC is 5.8 µg/mL (≈ 8.98 µM) in the data set on Shigella sp.; 21.7 µg/mL (≈ 33.6 µM) in the data set with Escherichia coli; 3.9 µg/mL (≈ 6.04 µM) in the data set with Klebsiella pneumoniae; 8.4 µg/mL (≈ 13 µM) in the data set on Aerobacter Aerogenes; 0.7 µg/mL (≈ 1.08 µM) in the data set on Salmonella heidelberg; 6 µg/mL (≈ 9.29 µM) in the data set on Pseudomonas Aeruginosa. Besides, the MIC is above 200 µg/mL in the data set on Serratia marcescens; 6.6 µg/mL (≈ 10.2 µM) in data set [1]; 8.6 µg/mL (≈ 13.3 µM) in data set [2] (setting [5]); 130 µg/mL (≈ 201 µM) in [3]; 3.2 µg/mL (≈ 4.96 µM) in [4] (setting [6]). In addition, the pKa in the data set “Titration (pKa)” (setting [7]) came to 4.88.
On to `Cc1nnc(SCC2=C(C(=O)O)N3C(=O)C(NC(=O)[C@H](NC(=O)c4ccc(O)c(O)c4O)c4ccc(O)cc4)C3SC2)s1` (stereo partly drawn) [Example 7, 7-[D-[2-(4-Hydroxyphenyl)-2-[(2,3,4-trihydroxybenzoyl)-amino]-acetyl]amino]-3-[[(5-methyl-1,3,4-thiadiazol-2-yl)thio]methyl]-3-cephem-4-carboxylic acid], for which the MIC in the data set with Shigella sp. stood at 50 µg/mL (≈ 77.4 µM); with Escherichia coli it was 100 µg/mL (≈ 155 µM); with Klebsiella pneumoniae, 52.5 µg/mL (≈ 81.3 µM); in the data set on Aerobacter Aerogenes it was 57.5 µg/mL (≈ 89.1 µM); in the data set on Salmonella heidelberg, 16 µg/mL (≈ 24.8 µM); in the data set with Pseudomonas Aeruginosa, 25 µg/mL (≈ 38.7 µM). Besides, the MIC in the data set with Serratia marcescens was above 200 µg/mL; in data set [1], 60 µg/mL (≈ 92.9 µM); in [2] (setting [5]) it was 60 µg/mL (≈ 92.9 µM); in data set [3], above 200 µg/mL; in data set [4] (setting [6]) it was 25 µg/mL (≈ 38.7 µM).
For the compound `Cc1nnc(SCC2=C(C(=O)O)N3C(=O)C(NC(=O)[C@H](NC(=O)c4c(O)cc(O)cc4O)c4ccc(O)cc4)C3SC2)s1` (stereo partly drawn) [Example 8, 7-[D-[2-(4-Hydroxyphenyl)-2-[(2,4,6-trihydroxybenzoyl)-amino]acetyl]amino]-3-[[(5-methyl-1,3,4-thiadiazol-2-yl)thio]methyl]-3-cephem-4-carboxylic acid], the MIC worked out at 100 µg/mL (≈ 155 µM) in the data set with Shigella sp.; 120 µg/mL (≈ 186 µM) in the data set with Escherichia coli; 110 µg/mL (≈ 170 µM) in the data set on Klebsiella pneumoniae; 140 µg/mL (≈ 217 µM) with Aerobacter Aerogenes; 110 µg/mL (≈ 170 µM) with Salmonella heidelberg; 100 µg/mL (≈ 155 µM) in the data set on Pseudomonas Aeruginosa. In addition, the MIC in the data set with Serratia marcescens is above 200 µg/mL; in data set [1], 10.5 µg/mL (≈ 16.3 µM); in [2] (Staphylococcus), 10 µg/mL (≈ 15.5 µM); in [3], 120 µg/mL (≈ 186 µM); in [4] (Staphylococcus), 10 µg/mL (≈ 15.5 µM).
`Cn1c(SCC2=C(C(=O)O)N3C(=O)C(NC(=O)[C@H](NC(=O)c4cccc(O)c4O)c4ccc(O)cc4)C3SC2)nnc(O)c1=O` (stereo partly drawn) [Example 9, 7-[D-[2-(4-Hydroxyphenyl)-2-[(2,3-dihydroxybenzoyl)-amino]acetyl]amino]-3-[[(4,5-dihydro-6-hydroxy-4-methyl-5-oxo-1,2,4-triazin-3-yl)thio]methyl]-3-cephem-4-carboxylic acid]: the MIC amounted to 8 µg/mL (≈ 12.2 µM) with Shigella sp.; 22.5 µg/mL (≈ 34.3 µM) with Escherichia coli; 3.9 µg/mL (≈ 5.94 µM) in the data set with Klebsiella pneumoniae; 11 µg/mL (≈ 16.8 µM) in the data set with Aerobacter Aerogenes; 1 µg/mL (≈ 1.52 µM) in the data set on Salmonella heidelberg; 124 µg/mL (≈ 189 µM) in the data set with Pseudomonas Aeruginosa. In addition, the MIC in the data set on Serratia marcescens is above 200 µg/mL; in [1] it was 16.2 µg/mL (≈ 24.7 µM); in [2] (setting [5]), 14 µg/mL (≈ 21.3 µM); in data set [3], above 200 µg/mL; in [4] (setting [6]), 11.6 µg/mL (≈ 17.7 µM). For the same compound, the pKa in “Titration (pKa)” (setting [7]) worked out at 4.99; in “Titration (pKa)” (second pKa, read-out: pKa (second value)) it was 8.89.
Turning to `Cc1nnc(SCC2=C(C(=O)O)N3C(=O)C(NC(=O)[C@H](NC(=O)c4ccc(N)c(N)c4)c4ccc(O)cc4)C3SC2)s1` (stereo partly drawn) [Example 13, 7-[D-[2-(4-Hydroxyphenyl)-2-[(3,4-diaminobenzoyl)amino]-acetyl]amino]-3-[[(5-methyl-1,3,4-thiadiazol-2-yl)-thio]methyl]-3-cephem-4-carboxylic acid], the MIC with Shigella sp. worked out at 13.8 µg/mL (≈ 22 µM); with Escherichia coli it was 19 µg/mL (≈ 30.3 µM); with Klebsiella pneumoniae, 14.8 µg/mL (≈ 23.6 µM); in the data set with Aerobacter Aerogenes, 33.2 µg/mL (≈ 52.9 µM); in the data set on Salmonella heidelberg, 14.6 µg/mL (≈ 23.3 µM); in the data set on Pseudomonas Aeruginosa, 31.5 µg/mL (≈ 50.2 µM). The MIC in the data set on Serratia marcescens worked out at 116 µg/mL (≈ 185 µM); in data set [1], 4.6 µg/mL (≈ 7.33 µM); in data set [2] (setting [5]), 5.2 µg/mL (≈ 8.28 µM); in [3], 126 µg/mL (≈ 201 µM); in [4] (Staphylococcus), 5 µg/mL (≈ 7.97 µM).
